Laboratory results: patent publication US20040171566A1, “Antisense modulation of p38 mitogen activated protein kinase expression” (priority 1999, published 2004)
In the oligonucleotide strings, read from the 5' end, every base follows the letter of its sugar. An asterisk marks phosphorothioate; unmarked linkages are phosphodiester. Other units and linkages are bracketed, terminal groups are in braces. A string of capitals states the bases alone. e = 2'-O-(2-methoxyethyl) (MOE); [5mC] = 5-methylcytosine; d = 2'-deoxy (DNA)

Experiments:
[1] = test system: human p38β mRNA; experiment: Inhibition of human p38β mRNA expression in HUVEC cells, Northern blot; format: cell-based
Procedure: The human Jurkat T-cell line (American Type Culture Collection, Manassas, Va.) was maintained in RPMI 1640 growth media supplemented with 10% fetal bovine serum (FBS; Hyclone, Logan, Utah). HUVEC cells (Clonetics, San Diego, Calif.) were cultivated in endothelial basal media supplemented with 10% FBS (Hyclone, Logan, Utah).
HUVEC cells were allowed to reach 75% confluency prior to use. The cells were washed twice with warm (37° C.) OPTI-MEM™ (Life Technologies). The cells were incubated in the presence of the appropriate culture medium, without the growth factors added, and the oligonucleotide formulated in LIPOFECTIN7 (Life Technologies), a 1:1 (w/w) liposome formulation of the cationic lipid N-[1-(2,3-dioleyloxy)propyl]-n,n,n-trimethylammonium chloride (DOTMA), and dioleoyl phosphotidylethanolamine (DOPE) in membrane filtered water. HUVEC cells were treated with 100 nM oligonucleotide in 10 μg/ml LIPOFECTIN7. Treatment was for four hours.
Total mRNA was isolated using the RNEASY7 Mini Kit (Qiagen, Valencia, Calif.; similar kits from other manufacturers may also be used), separated on a 1% agarose gel, transferred to HYBOND™-N+ membrane (Amersham Pharmacia Biotech, Piscataway, N.J.), a positively charged nylon membrane, and probed. p38 MAPK probes were made using the Prime-A-Gene7 kit (Promega Corporation, Madison, Wis.), a random primer labeling kit, using mouse p38α or p38β cDNA as a template. A glyceraldehyde 3-phosphate dehydrogenase (G3PDH) probe was purchased from Clontech (Palo Alto, Calif.), Catalog Number 9805-1. The fragments were purified from low-melting temperature agarose, as described in Maniatis, T., et al., Molecular Cloning: A Laboratory Manual, 1989. The G3PDH probe was labeled with REDIVUE™ ^32P-dCTP (Amersham Pharmacia Biotech, Piscataway, N.J.) and Strip-EZ labelling kit (Ambion, Austin, Tex.). mRNA was quantitated by a PhosphoImager (Molecular Dynamics, Sunnyvale, Calif.).
Every oligonucleotide tested gave at least 50% inhibition.
Oligonucleotides 17893 (SEQ ID NO. 27), 17899 (SEQ ID NO:33), 17904 (SEQ ID NO. 38), and 17907 (SEQ ID NO. 41) were chosen for dose response studies. HUVEC cells were cultured and treated as described in Example 2 except that the oligonucleotide concentration was varied as shown in Table 6. The Lipofectin7/Oligo ratio was maintained at 3 μg Lipofectin7/100 nM oligo, per ml. mRNA was measured by Northern blot as described in Example 2.

[2] = test system: human p38α mRNA; experiment: Human p38α mRNA expression in T-24 cells
[3] = test system: human p38β mRNA; experiment: Human p38β mRNA expression in T-24 cells
[4] = test system: mouse p38α mRNA; experiment: Inhibition of mouse p38α mRNA expression in bEND.3 cells, Northern blot; format: cell-based; details: mouse p38β antisense oligonucleotides, screened as in Example 4
Procedure: (§1) bEND.3, a mouse endothelial cell line (gift of Dr. Werner Risau; see Montesano et al., Cell, 1990, 62, 435, and Stepkowski et al., J. Immunol., 1994, 153, 5336) were grown in high-glucose DMEM (Life Technologies, Gaithersburg, Md.) medium containing 10% fetal bovine serum (FBS) and 1% Penicillin/Streptomycinin. Cells were plated at approximately 2×10^5 cells per 100 mm dish. Within 48 hours of plating, the cells were washed with phosphate-buffered saline (Life Technologies). Then, Opti-MEM7 medium containing 3 μg/mL LIPOFECTIN^7 and an appropriate amount of oligonucleotide were added to the cells. As a control, cells were treated with LIPOFECTIN^7 without oligonucleotide under the same conditions and for the same times as the oligonucleotide-treated samples.
(§2) After 4 hours at 37° C., the medium was replaced with high glucose DMEM medium containing 10% FBS and 1% Penicillin/Streptomycinin. The cells were typically allowed to recover overnight (about 18 to 24 hours) before RNA and/or protein assays were performed as described in Example 2. The p38α, p38β and G3PDH probes used were identical to those described in Example 2.
(§3) Rat p38α antisense oligonucleotides were screened in bEND.3 cells for inhibition of p38α and p38β mRNA expression. The concentration of oligonucleotide used was 100 nM. Oligonucleotides 21844 (SEQ ID NO. 47), 21845 (SEQ ID NO. 48), 21872 (SEQ ID NO. 51), 21873 (SEQ ID NO. 52), 21875 (SEQ ID NO. 54), and 21876 (SEQ ID NO.
(§4) Mouse p38β antisense sequences were screened in bEND.3 cells as described in Example 4.

[5] = test system: mouse p38β mRNA; experiment: Inhibition of mouse p38β mRNA expression in bEND.3 cells, Northern blot; format: cell-based; details: mouse p38β antisense oligonucleotides, screened as in Example 4
Procedure: as §1, §2, §3, §4

[6] = 100 nM oligonucleotide in 10 μg/ml LIPOFECTIN, four hours, Northern blot
[7] = initial screen of human p38β oligonucleotides
[8] = dose 50 nM, relative to control oligonucleotide = 100%
[9] = dose 100 nM, relative to control oligonucleotide = 100%
[10] = dose 200 nM, relative to control oligonucleotide = 100%
[11] = initial screen of human p38α oligonucleotides

ATCCTGAGCTCACAGTCCTC (chimeric, phosphorothioate, further chemistry not given here) [ISIS 17899]
% mRNA EXPRESSION [1, 6]: 5% | % mRNA Inhibition [1, 6]: 95% | % mRNA EXPRESSION ([1]; dose 10 nM): 37% | % mRNA Inhibition ([1]; dose 10 nM): 63% | % mRNA EXPRESSION ([1]; dose 25 nM): 23% | % mRNA Inhibition ([1]; dose 25 nM): 77% | % mRNA EXPRESSION ([1]; dose 50 nM): 18% | % mRNA Inhibition ([1]; dose 50 nM): 82% | % mRNA EXPRESSION ([1]; dose 100 nM): 21% | % mRNA Inhibition ([1]; dose 100 nM): 79% | % p38α mRNA EXPRESSION [2, 7]: 117% | % p38β mRNA Expression [3, 8]: 89% | % p38β mRNA Expression [3, 9]: 36% | % p38β mRNA Expression [3, 10]: 15% | % p38β mRNA Expression [3, 7]: 56%

AoCoAoToTsGsCsTsGsGsGsCsTsTsCsAoGoGoToC (antisense eAe[5mC]eAeTeT*dG*d[5mC]*dT*dG*dG*dG*d[5mC]*dT*dT*d[5mC]*eAeGeGeTe[5mC]) [ISIS 100808]
% p38α mRNA INHIBITION [4]: 13%

AoToCoCoTsCsAsGsCsTsCsGsCsAsGsToCoCoToC (antisense eAeTe[5mC]e[5mC]eT*d[5mC]*dA*dG*d[5mC]*dT*d[5mC]*dG*d[5mC]*dA*dG*eTe[5mC]e[5mC]eTe[5mC]) [ISIS 100809]
% p38α mRNA INHIBITION [4]: 14%

AoToGoGoAsTsGsTsGsGsCsCsGsGsCsGoToGoAoA (antisense eAeTeGeGeA*dT*dG*dT*dG*dG*d[5mC]*d[5mC]*dG*dG*d[5mC]*eGeTeGeAeA) [ISIS 100806]
% p38α mRNA INHIBITION [4]: 3% | % p38β mRNA Inhibition [5]: 22%

CoAoGoGoCsCsAsCsAsGsAsCsCsAsGsAoToGoToC (antisense e[5mC]eAeGeGe[5mC]*d[5mC]*dA*d[5mC]*dA*dG*dA*d[5mC]*d[5mC]*dA*dG*eAeTeGeTe[5mC]) [ISIS 100812]
% p38α mRNA INHIBITION [4]: 17% | % p38β mRNA Inhibition [5]: 36%

CoCoCoToGsCsAsGsCsCsGsCsTsGsCsGoGoCoAoC (antisense e[5mC]e[5mC]e[5mC]eTeG*d[5mC]*dA*dG*d[5mC]*d[5mC]*dG*d[5mC]*dT*dG*d[5mC]*eGeGe[5mC]eAe[5mC]) [ISIS 100802]
% p38β mRNA Inhibition [5]: 35% | % p38α mRNA EXPRESSION [2, 7]: 78% | % p38β mRNA Expression [3, 7]: 47%

GGCACAAAGCTGATGACTTC (chimeric deoxy gapped, phosphorothioate, further chemistry not given here) [ISIS 100875]
% p38α mRNA EXPRESSION ([2]; dose 50 nM): 30% | % p38α mRNA EXPRESSION ([2]; dose 100 nM): 13% | % p38α mRNA EXPRESSION ([2]; dose 200 nM): 8% | % P38α mRNA EXPRESSION [2, 11]: 39% | % P38β mRNA EXPRESSION [3, 11]: 90%

GTACGTTCTGCGCGCGTGGA (antisense eGeTeAe[5mC]eG*dT*dT*d[5mC]*dT*dG*d[5mC]*dG*d[5mC]*dG*d[5mC]*eGeTeGeGeA) [ISIS 107871]
% p38α mRNA EXPRESSION [2, 7]: 111% | % p38β mRNA Expression [3, 8]: 41% | % p38β mRNA Expression [3, 9]: 42% | % p38β mRNA Expression [3, 10]: 10% | % p38β mRNA Expression [3, 7]: 60%

GoCoAoGoAsCsTsGsAsGsCsCsGsTsAsGoGoCoGoC (antisense eGe[5mC]eAeGeA*d[5mC]*dT*dG*dA*dG*d[5mC]*d[5mC]*dG*dT*dA*eGeGe[5mC]eGe[5mC]) [ISIS 100803]
% p38α mRNA INHIBITION [4]: 18%
